Values joined by “and” are separate entries in the source; they are usually repeats but may differ in a detail not shown here. Equal entries are not always repeated.
SMILES | melting point
CC1(C)CCCC(C)(C)N1 [2,2,6,6-tetramethylpiperidine] | -59 °C
COC(F)(F)C(Cl)Cl [2,2-Dichloro-1,1-difluoroethyl methyl ether] | -35 °C
CCC(C)(C)C [2,2-Dimethylbutane] | -100 °C
OCCN(CCO)C(CO)(CO)CO [2,2-bis(hydroxymethyl)-2,2',2''-nitrilotriethanol] | 104 °C
OCC(F)F [2,2-difluoroethanol] | -28 °C
CCC(O)C(C)(C)C (configuration not stated) [2,2-dimethyl-3-pentanol] [listing 1 of 2 here] | 5 °C
CCC(O)C(C)(C)C (configuration not stated) [2,2-dimethyl-3-pentanol] [listing 2 of 2 here] | -5 °C
CCC(C)(C)C [2,2-dimethylbutane] | -100 °C
CC(C)(C)C(=O)O [2,2-dimethylpropanoic_acid] | 36 °C
OCc1c(F)c(F)c(F)c(F)c1F [2,3,4,5,6-Pentafluorobenzyl Alcohol] | 37.5 °C
CC(=O)OCC(OC(C)=O)C(OC(C)=O)C(OC(C)=O)C(OC(C)=O)C(=O)O (configuration not stated) [2,3,4,5,6-penta(acetyloxy)hexanoic acid] | 110 °C
NC(=O)c1c(F)c(F)c(F)c(F)c1F [2,3,4,5,6-pentafluorobenzamide] | 148 °C
Cc1c(C)c(C)c(CCl)c(C)c1C [2,3,4,5,6-pentamethylbenzyl chloride] | 83 °C
Cc1c(C)c(C)c2c(c1C)CC2=O [2,3,4,5-Tetramethylbicyclo(4.2.0)octa-1,3,5-trien-7-one] | 161 °C
O=C1C(c2ccccc2)=C(c2ccccc2)C(c2ccccc2)=C1c1ccccc1 [2,3,4,5-Tetraphenylcyclopenta-2,4-dien-1-one] | 218 °C
OB(O)c1cc(F)c(F)c(F)c1F [2,3,4,5-tetrafluorobenzeneboronic acid] | 253 °C
O=C(O)c1cc(F)c(F)c(F)c1F [2,3,4,5-tetrafluorobenzoic acid] | 86 °C
Cc1[nH]c(C)c(C)c1C [2,3,4,5-tetramethylpyrrole] | 105 °C
OB(O)c1c(F)cc(F)c(F)c1F [2,3,4,6-tetrafluorobenzeneboronic acid] | 127 °C

SMILES | melting point
O=[N+]([O-])c1ccc(Cl)c(Cl)c1Cl [2,3,4-trichloronitrobenzene] | 56 °C and 55.5 °C
S=C=Nc1ccc(Cl)c(Cl)c1Cl [2,3,4-trichlorophenyl isothiocyanate] | 70 °C
Cc1cc(C)c(C)c(CCl)c1C [2,3,5,6-tetramethylbenzyl chloride] | 70 °C
O=C(O)c1c(F)cnc(F)c1F [2,3,5-trifluoropyridine-4-carboxylic acid] | 110 °C
c1ccc2cc3cc4ccccc4cc3cc2c1 [2,3-Benzanthracene, Naphthacene] | 341 °C
Nc1cccnc1N [2,3-diaminopyridine] | 112 °C
CC(Br)C(C)(C)Br (configuration not stated) [2,3-dibromo-2-methylbutane] | 15 °C
CC(Br)C(Br)C(=O)O (configuration not stated) [2,3-dibromobutyric acid] | 86 °C
C=C(Cl)CCl [2,3-dichloro-1-propene] | -83 °C
COc1cccc(Cl)c1Cl [2,3-dichloroanisole] | 32 °C
Clc1cccnc1Cl [2,3-dichloropyridine] | 67 °C
Cc1cccc(Cl)c1Cl [2,3-dichlorotoluene] | 6 °C
O=Cc1c(-c2ccccc2)nc2n1CCS2 [2,3-dihydro-6-phenylimidazo[2,1-b]thiazole-5-carboxaldehyde] | 123 °C
c1ccc2c(c1)CCO2 [2,3-dihydrobenzo[b]furan] | -21 °C
C=C(C)C(=C)C [2,3-dimethyl-1,3-butadiene] | -76 °C
C=C(C)C(C)C [2,3-dimethyl-1-butene] | -157 °C
C/C(C)=C(/C)C [2,3-dimethyl-2-butene] | -74 °C
Cc1c([N+](=O)[O-])cc[n+]([O-])c1C [2,3-dimethyl-4-nitropyridine n-oxide] | 93 °C

Reference: the Bradley open melting point set (2014)
